We go through 1 molecule from PMC12114947, “Evaluation of Violacein Metabolic Stability and Metabolite Identification in Human, Mouse, and Rat Liver Microsomes” (Pharmaceutics, 2025).

Structures are written as SMILES. ≈ marks a conversion by molar mass, not a printed value.

The subject of one data set is parasitemia. On the set-up: method as in PMID 19273690. The note with it: C57BL/6 mice, three consecutive days, 3.75 mg/kg/day; cited from earlier work.
The conditions of data set [1]: buffer, 720 h, pH 5; cited from earlier work.
Data set [2] is described as follows: Identification of violacein metabolites in HLMs by LC-QTOF. Type of data set: in vitro ADME, human. To be noted: all samples after 120 min of reaction, 105 µM violacein, 5 mg/mL protein. The protocol:
The metabolism of violacein was investigated using HLMs and RLMs, by incubating the samples for 120 min under four conditions (n = 1): zero sample, phase I-only incubation, phase I and II incubation, and phase II-only incubation, as described by Godoi et al..
For all samples, 25 µL of the 843 µM violacein stock solution was added to propylene tubes and evaporated to dryness under a nitrogen stream. The dried residue was then reconstituted with 2 µL of methanol, ensuring that the final organic solvent concentration remained below 1% to minimize any potential impact on microsomal activity, as described by Jia et al..
To assess phase I metabolism, 148 μL of an NADPH-regenerating system containing 1.1 mM NADP+, 10 mM glucose-6-phosphate, 1 U/mL glucose-6-phosphate dehydrogenase, 5 mM sodium citrate, and 66 mM magnesium chloride in 100 mM phosphate buffer (pH 7.4) were added to the tubes. The solutions were pre-incubated for 5 min at 37 °C and 300 rpm in an MTC 100 thermo shaker incubator, and metabolic reactions were initiated by adding 50 μL of HLMs or RLMs (20 mg/mL), to yield final concentrations of 105 µM violacein and 5 mg of microsomal protein/mL. […]
The acquired chromatograms and mass spectra were analyzed using Insight Explore software version 1.0.0.0 (Shimadzu, Kyoto, Japan). […]

In data set [3] the test system is P. falciparum W2 strain (chloroquine-resistant). On the set-up: method as in PMID 29642881, PMID 33689276. The note with it: cited from earlier work.
Another data set deals with HT29 cells. On the set-up: method as in PMID 16889929. The note with it: cited from earlier work.
The test system of a further data set is Candida albicans. On the set-up: method as in PMID 26428920. The note with it: cited from earlier work.

The term IC50 denotes the concentration needed to halve the response being measured. In general, MIC refers to the least concentration at which growth counts as inhibited.

Take `O=C1NC(c2c[nH]c3ccc(O)cc23)=C/C1=C1\C(=O)Nc2ccccc21` [violacein]: in the data set on parasitemia, the Reduction in parasitemia is on record as 82%. In addition, in data set [1], the “Residual pigment remaining unaltered” value is recorded as “more than 80%”. In addition, in data set [2], the Violacein metabolized is 30%. Further, the IC50 in data set [3] is 500 nM; with HT29 cells, above 10000 nM. Further, the minimum inhibitory concentration (MIC) with Candida albicans is 8 µg/mL (≈ 23.3 µM).
